The values below come from publication PMC6253949, “The Inhibitory Action of Kohamaic Acid A Derivatives on Mammalian DNA Polymerase β” (Molecules, 2008).

In assay [1] the test system is HL-60 cells. As to the kind of experiment: HL-60 cancer cell growth, MTT assay. The assay is classed as cell-based, human. To be noted: 50 μM, 24 hr. How it is done: To investigate the effects of KA-A derivatives in cultured cells, we used a human cancer cell line, HL-60, human promyelocytic leukemia cells (IFO 050022), supplied by the Health Science Research Resources Bank (Osaka, Japan). The cells were routinely cultured in RPMI 1640 medium supplemented with 10% fetal bovine serum, 100 μg/mL streptomycin, 100 unit/mL penicillin, and 1.6 mg/mL NaHCO3. The cells were cultured at 37 °C in standard medium in a humidified atmosphere of 5% CO2-95% air. The rate of the cancer cell growth of the compound was investigated as follows: high concentrations (10 mM) of the compounds were dissolved in DMSO and stocked. Approximately 1 x 10^4 cells per well were inoculated in 96-well micro plates, and then the compound stock solution was diluted to various concentrations, and applied to each well. After incubation for 24 hr, the survival rate was determined by MTT (3-(4,5-dimethylthiazol-2-yl)-2,5-diphenyl tetrazolium bromide) assay.
(Tetrazolium assays rely on reduction of a dye to a coloured formazan, in cell work by metabolically active cells.)

Assay [2] addresses T1, Calf DNA polymerase α (Bos taurus, UniProt A0AAA9THK8). The experiment in a line: DNA polymerase assay, calf pol α. Type of assay: biochemical. The source says:
(§1) Pol α was purified from calf thymus by immuno-affinity column chromatography as described by Tamai et al.. Recombinant rat pol β was purified from E. coli JMpβ5 as described by Date et al.. The human pol γ catalytic gene was cloned into pFastBac. Histidine-tagged enzyme was expressed using the BAC-TO-BAC HT Baculovirus Expression System according to the supplier's manual (LIFE TECHNOLOGIES, MD, USA) and purified using ProBoundresin (Invitrogen Japan, Tokyo, Japan). Human pols δ and ε were purified by the nuclear fractionation of human peripheral blood cancer cells (Molt-4) using the second subunit of pols δ and ε-conjugated affinity column chromatography, respectively. Recombinant human pols η and ι tagged with His6 at their C-terminal were expressed in SF9 insect cells using the baculovirus expression system, and were purified as described previously. A truncated form of pol κ (i.e., hDINB1DC) with 6 x His-tags attached at the C-terminal was overproduced using the BAC-to-BAC Baculovirus Expression System kit (GIBCO BRL, MD, USA) and purified as described previously. Recombinant human His-pol λ was overexpressed and purified according to a method described previously. Fish pol δ was purified from the testis of cherry salmon (Oncorhynchus masou). Pol I (α-like) from a higher plant, cauliflower inflorescence, was purified according to the methods outlined by Sakaguchi et al.. The Klenow fragment of pol I from E. coli was purchased from Worthington Biochemical Corp. (Freehold, NJ, USA). Taq pol, T4 pol, T7 RNA polymerase and T4 polynucleotide kinase were purchased from Takara (Kyoto, Japan). Bovine pancreas deoxyribonuclease I (DNase I) was obtained from Stratagene Cloning Systems (La Jolla, CA, USA).
(§2) The reaction mixtures for pol α, pol β, fish pol δ, plant pol I (α-like) and prokaryotic pols were described previously, and those for pol γ, and pols δ and ε were as described by Umeda et al. and Ogawa et al., respectively. The reaction mixtures for pols η, ι and κ were the same as for pol α, and the reaction mixture for pol λ was the same as that for pol β.
For pols, poly(dA)/oligo(dT)12-18 (A/T = 2/1) and dTTP were used as the DNA template-primer and nucleotide (i.e., dNTP) substrate, respectively. KA-A analogues (i.e., compounds 1–12) were dissolved in distilled dimethyl sulfoxide (DMSO) at various concentrations and sonicated for 30 sec. Aliquots of 4 μL of sonicated samples were mixed with 16 μL of each enzyme (final amount 0.05 units) in 50 mM Tris-HCl (pH 7.5) containing 1 mM dithiothreitol, 50% glycerol and 0.1 mM EDTA, and kept at 0 °C for 10 min. […] Activity without the inhibitor was considered 100%, and the remaining activity at each concentration of the inhibitor was determined relative to this value. […]

Assay [3] has as its system double-stranded DNA (dsDNA). The experiment in a line: Thermal transition (Tm) of double-stranded DNA. Type of assay: binding. To be noted: compound 11 at 200 μM; data not shown. How it is done: The Tm of dsDNA with an excess amount of compound 11 (200 μM) was measured using a spectrophotometer equipped with a thermoelectric cell holder.
Assay [4] addresses T2, Rat DNA polymerase β (Rattus norvegicus, UniProt P06766).
T2 construct: made in house; host or cells: E. coli JMpβ5
The experiment in a line: DNA polymerase assay, rat pol β. The assay is classed as biochemical. To be noted: 10 and 100 μM of compound (Figure 2B).
Source text: as §1, §2
For pols, poly(dA)/oligo(dT)12-18 (A/T = 2/1) and dTTP were used as the DNA template-primer and nucleotide (i.e., dNTP) substrate, respectively. KA-A analogues (i.e., compounds 1–12) were dissolved in distilled dimethyl sulfoxide (DMSO) at various concentrations and sonicated for 30 sec. Aliquots of 4 μL of sonicated samples were mixed with 16 μL of each enzyme (final amount 0.05 units) in 50 mM Tris-HCl (pH 7.5) containing 1 mM dithiothreitol, 50% glycerol and 0.1 mM EDTA, and kept at 0 °C for 10 min. These inhibitor-enzyme mixtures (8 μl) were added to 16 μL of each of the enzyme standard reaction mixtures, and incubation was carried out at 37 °C for 60 min, except for Taq pol, which was incubated at 74 °C for 60 min. Activity without the inhibitor was considered 100%, and the remaining activity at each concentration of the inhibitor was determined relative to this value. One unit of pol activity was defined as the amount of enzyme that catalyzed the incorporation of 1 nmol of dNTP (i.e., dTTP) into synthetic DNA template-primers in 60 min at 37 °C under the normal reaction conditions for each enzyme.

The target in assay [5] is T1, Calf DNA polymerase α. Details: method as in PMID 12758147. As to conditions: reported previously; read-out: IC50 value, pol α; cited from earlier work.
The target of assay [6] is T2, Rat DNA polymerase β. Details: method as in PMID 12758147. To be noted: reported previously; read-out: IC50 value, pol β; cited from earlier work.

Structures are written as SMILES. Like-named read-outs stand apart in the source and are kept apart here.

T1 sequence (Q58D13 whole entry): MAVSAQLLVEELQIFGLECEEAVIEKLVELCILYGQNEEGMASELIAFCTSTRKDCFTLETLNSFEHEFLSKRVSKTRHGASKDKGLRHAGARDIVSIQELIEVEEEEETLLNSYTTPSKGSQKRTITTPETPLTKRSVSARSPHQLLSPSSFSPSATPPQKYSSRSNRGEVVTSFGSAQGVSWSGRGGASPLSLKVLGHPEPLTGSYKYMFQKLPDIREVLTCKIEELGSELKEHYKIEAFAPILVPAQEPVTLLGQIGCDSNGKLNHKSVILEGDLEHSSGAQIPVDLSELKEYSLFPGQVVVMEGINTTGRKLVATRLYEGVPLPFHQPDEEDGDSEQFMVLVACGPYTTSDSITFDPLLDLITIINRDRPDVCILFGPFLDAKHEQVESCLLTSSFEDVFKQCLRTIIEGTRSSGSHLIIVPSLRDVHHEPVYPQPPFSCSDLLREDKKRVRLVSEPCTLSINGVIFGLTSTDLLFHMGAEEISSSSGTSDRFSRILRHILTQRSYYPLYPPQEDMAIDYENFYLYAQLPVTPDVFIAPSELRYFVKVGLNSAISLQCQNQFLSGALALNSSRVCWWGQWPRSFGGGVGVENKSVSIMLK
T1 sequence (A0AAA9THK8 entry or part of it): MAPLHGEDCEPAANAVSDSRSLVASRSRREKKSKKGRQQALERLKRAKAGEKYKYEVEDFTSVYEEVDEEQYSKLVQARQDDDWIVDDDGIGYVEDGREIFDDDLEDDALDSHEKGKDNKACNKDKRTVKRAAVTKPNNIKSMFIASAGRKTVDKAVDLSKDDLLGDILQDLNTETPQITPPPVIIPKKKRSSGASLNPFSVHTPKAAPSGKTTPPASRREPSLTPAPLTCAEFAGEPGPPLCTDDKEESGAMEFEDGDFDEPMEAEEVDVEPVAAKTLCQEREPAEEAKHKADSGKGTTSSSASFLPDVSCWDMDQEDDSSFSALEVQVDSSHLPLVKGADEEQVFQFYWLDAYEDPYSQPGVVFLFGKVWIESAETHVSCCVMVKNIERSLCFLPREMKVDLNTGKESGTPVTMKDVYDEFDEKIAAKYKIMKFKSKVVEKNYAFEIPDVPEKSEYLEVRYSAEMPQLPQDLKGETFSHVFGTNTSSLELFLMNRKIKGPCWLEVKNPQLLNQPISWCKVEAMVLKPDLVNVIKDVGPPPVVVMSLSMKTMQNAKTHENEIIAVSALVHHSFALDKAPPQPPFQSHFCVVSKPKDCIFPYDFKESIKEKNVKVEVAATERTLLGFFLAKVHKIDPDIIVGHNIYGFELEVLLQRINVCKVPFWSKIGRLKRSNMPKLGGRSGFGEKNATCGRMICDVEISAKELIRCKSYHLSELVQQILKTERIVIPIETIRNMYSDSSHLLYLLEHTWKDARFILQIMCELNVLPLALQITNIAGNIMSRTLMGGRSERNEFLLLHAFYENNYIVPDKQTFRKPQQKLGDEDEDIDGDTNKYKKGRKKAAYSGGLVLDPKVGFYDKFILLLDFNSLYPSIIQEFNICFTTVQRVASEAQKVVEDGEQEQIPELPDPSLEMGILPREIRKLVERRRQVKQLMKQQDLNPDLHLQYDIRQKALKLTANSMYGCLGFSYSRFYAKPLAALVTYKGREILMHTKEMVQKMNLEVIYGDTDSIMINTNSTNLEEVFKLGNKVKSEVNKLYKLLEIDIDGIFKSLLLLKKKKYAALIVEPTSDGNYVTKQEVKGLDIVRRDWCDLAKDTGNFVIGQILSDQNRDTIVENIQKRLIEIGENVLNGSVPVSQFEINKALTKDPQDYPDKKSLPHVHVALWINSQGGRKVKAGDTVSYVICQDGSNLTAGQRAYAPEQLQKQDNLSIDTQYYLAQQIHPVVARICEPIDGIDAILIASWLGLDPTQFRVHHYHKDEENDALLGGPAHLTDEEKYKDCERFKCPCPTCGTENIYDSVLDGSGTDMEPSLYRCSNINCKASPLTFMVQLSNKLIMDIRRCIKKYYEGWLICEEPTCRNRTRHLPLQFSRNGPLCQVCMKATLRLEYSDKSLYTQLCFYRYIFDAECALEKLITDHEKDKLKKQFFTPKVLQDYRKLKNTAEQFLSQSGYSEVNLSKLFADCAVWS
T1 sequence (A0JNF4 entry or part of it, further chain): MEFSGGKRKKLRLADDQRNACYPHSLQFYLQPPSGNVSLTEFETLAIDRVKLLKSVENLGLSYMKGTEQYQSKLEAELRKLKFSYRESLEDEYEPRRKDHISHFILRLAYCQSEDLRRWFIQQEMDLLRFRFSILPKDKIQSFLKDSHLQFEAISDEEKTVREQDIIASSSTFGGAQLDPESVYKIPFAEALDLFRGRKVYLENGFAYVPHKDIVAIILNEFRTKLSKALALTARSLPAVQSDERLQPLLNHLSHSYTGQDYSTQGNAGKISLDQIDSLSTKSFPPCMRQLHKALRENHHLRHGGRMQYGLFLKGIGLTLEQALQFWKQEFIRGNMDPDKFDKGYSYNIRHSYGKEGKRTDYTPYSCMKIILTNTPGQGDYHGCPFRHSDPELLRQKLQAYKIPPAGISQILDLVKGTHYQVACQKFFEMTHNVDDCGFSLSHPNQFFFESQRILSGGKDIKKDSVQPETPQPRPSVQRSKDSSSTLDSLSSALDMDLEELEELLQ
T1 sequence (A0A3Q1MF00 entry or part of it, further chain): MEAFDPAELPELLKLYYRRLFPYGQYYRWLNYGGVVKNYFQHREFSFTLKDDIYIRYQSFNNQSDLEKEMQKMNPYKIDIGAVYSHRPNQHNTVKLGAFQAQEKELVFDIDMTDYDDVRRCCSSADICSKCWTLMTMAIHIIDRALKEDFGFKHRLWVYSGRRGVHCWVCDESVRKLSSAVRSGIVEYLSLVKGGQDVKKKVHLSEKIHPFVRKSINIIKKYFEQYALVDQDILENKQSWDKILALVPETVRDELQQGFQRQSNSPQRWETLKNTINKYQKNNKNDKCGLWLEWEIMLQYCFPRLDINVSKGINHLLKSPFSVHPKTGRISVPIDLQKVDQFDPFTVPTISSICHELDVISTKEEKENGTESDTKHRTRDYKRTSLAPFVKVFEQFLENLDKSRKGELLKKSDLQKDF

For `CC1=CC[C@H]2C(C)(C)CCC[C@]2(C)[C@H]1CCCCCCCCCCCCC(=O)O` (relative stereo) [compound 10, (1S*,4aS*,8aS*)-13-(1,4,4a,5,6,7,8,8a-octahydro-2,5,5,8a-tetramethylnaphthalen-1-yl)tridecanoic acid], in assay [1], the “Growth inhibitory effect on HL-60 cells, rank among compounds tested” value is recorded as “third strongest”.

In general, IC50 refers to the concentration that gives 50% inhibition. Compound `C[C@@]1(CO)[C@H](O)CC[C@@]2(C)[C@H]1CC[C@H]1C[C@@H]3C[C@@]12CC[C@]3(O)CO` [aphidicolin, reference compound] yielded a half-inhibitory concentration (IC50) in assay [2] of 40 µM.

Take `CC1=CC[C@H]2C(C)(C)CCC[C@]2(C)[C@H]1CCCCCCCCCCCCCCCCCCCCC(=O)O` (relative stereo) [compound 12, (1S*,4aS*,8aS*)-21-(1,4,4a,5,6,7,8,8a-octahydro-2,5,5,8a-tetramethylnaphthalen-1-yl)henicosanoic acid]: in assay [1], the “Growth inhibitory effect on HL-60 cells, rank among compounds tested” value is reported as “second”. For the compound `CC[n+]1c(-c2ccccc2)c2cc(N)ccc2c2ccc(N)cc21` [ethidium bromide, reference compound], the “Thermal transition of Tm of dsDNA” value in assay [3] is “clear thermal transition”. Turning to `CC1=CC[C@H]2C(C)(C)CCC[C@]2(C)[C@H]1CCCCCCCCC(=O)O` (relative stereo) [compound 9, (1S*,4aS*,8aS*)-9-(1,4,4a,5,6,7,8,8a-octahydro-2,5,5,8a-tetramethylnaphthalen-1-yl)nonanoic acid], the “Inhibitory effect on pol α compared with KA-A” value in assay [2] (10 and 100 μM of compound (Figure 2A)) is “as strong as that of KA-A”. Also, in assay [4], the “Inhibitory effect on pol β compared with KA-A” value was “as strong as that of KA-A”. Regarding `CC(C)=CCC[C@@]1(C)CCC[C@]2(C)[C@@H](CC/C(C)=C/C(=O)O)C(C)=CC[C@@H]12` [compound 1, kohamaic acid A], the IC50 in assay [5] was 7.6 µM; in assay [6] it was 8.4 µM.
